Results taken from PubChem BioAssay AID623998 (Broad Institute, 2012).
“And” between values parts separate entries of the source, which are not always exact repeats. Equal entries are not always repeated. Results filed as inconclusive are left out. The source made the active and inactive calls.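 The calls were made as follows: active = compound whose fitted half-maximal dose is at most twice its top tested dose in every repeat; inconclusive = mixed calls across repeats, weak flat response, or unreliable curve fit; inactive = all repeats flat, too weak, or wrong direction.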

The compounds below were run against Glycogen synthase kinase-3 beta (Homo sapiens) (UniProt P49841) (assay: inhibition of human GSK3beta kinase activity – biochemical, ADP-Glo luminescence, dry powder samples, SAR follow-up (AID 623998)). Details: GSK3beta ADP-Glo luminescence kinase assay, 60 min.
Chain of Glycogen synthase kinase-3 beta (Homo sapiens) (P49841 whole entry, looked up): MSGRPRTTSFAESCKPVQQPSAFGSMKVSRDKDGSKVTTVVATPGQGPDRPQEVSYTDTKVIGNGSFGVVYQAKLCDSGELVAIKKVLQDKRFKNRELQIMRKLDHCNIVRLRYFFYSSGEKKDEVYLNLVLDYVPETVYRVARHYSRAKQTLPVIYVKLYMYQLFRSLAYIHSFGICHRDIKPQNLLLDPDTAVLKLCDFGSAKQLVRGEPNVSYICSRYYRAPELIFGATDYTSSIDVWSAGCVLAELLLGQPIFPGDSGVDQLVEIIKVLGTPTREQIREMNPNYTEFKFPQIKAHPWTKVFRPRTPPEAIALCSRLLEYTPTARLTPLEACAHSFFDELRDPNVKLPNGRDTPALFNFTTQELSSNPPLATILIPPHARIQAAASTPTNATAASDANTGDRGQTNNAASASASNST
For Cc1[nH]nc2c1C(c1ccccc1C(F)(F)F)C1=C(CC(C)(C)CC1=O)N2 (configuration not stated), the AC50 was 0.0425 µM. Compound Cc1[nH]nc2c1[C@@H](c1cccs1)C1=C(CC(C)(C)CC1=O)N2 has an AC50 of 1.91 µM. In the case of COc1ccccc1[C@H]1C2=C(CC(C)(C)CC2=O)Nc2n[nH]c(C(F)(F)F)c21, the AC50 is reported as 1.59 µM. For CC1(C)CC(=O)C2=C(C1)Nc1n[nH]c(C(F)(F)F)c1C2c1ccccc1F (configuration not stated), the AC50 was 0.184 µM. COc1ccccc1C1C2=C(CC(C)(C)CC2=O)Nc2n[nH]c(C)c21 (configuration not stated) was tested, and the AC50 was 0.124 µM. Work on CC1(C)CC(=O)C2=C(C1)Nc1n[nH]c(C(F)(F)F)c1C2c1cc(F)ccc1F (configuration not stated) yielded an AC50 of 0.451 µM. For Cc1[nH]nc2c1C(C)(c1ccccc1)C1=C(CC(C)(C)CC1=O)N2 (configuration not stated), the AC50 was 0.308 µM. COc1ccccc1C1C2=C(CC(C)(C)CC2=O)Nc2n[nH]c(C(C)C)c21 (configuration not stated) gave an AC50 of 0.415 µM. With CC1(C)CC(=O)/C(=C\c2ccccc2C(F)(F)F)C(=Nc2cc(C(F)(F)F)[nH]n2)C1 the AC50 was 3.11 µM. In the case of O/N=C/c1cn(-c2ccccc2)nc1-c1ccccc1, the AC50 is reported as 2.93 µM. For COc1ccccc1C1C2=C(CC(C)(C)CC2=O)Nc2n[nH]c(C(F)(F)F)c21 (configuration not stated), the AC50 was 0.0132 µM and 0.128 µM. Work on Cc1[nH]nc2c1C(c1ccsc1)C1=C(CC(C)(C)CC1=O)N2 (configuration not stated) yielded an AC50 of 1.37 µM. Cc1[nH]nc2c1C(c1cccnc1)C1=C(CC(C)(C)CC1=O)N2 (configuration not stated) was tested, and the AC50 was 0.408 µM. Cc1ccc(-c2nn(-c3ccccc3)cc2/C=N/O)cc1 showed an AC50 of 0.313 µM. Compound COc1ccccc1C1C2=C(CC(C)(C)CC2=O)Nc2n[nH]c(-c3ccccc3)c21 (configuration not stated) has an AC50 of 1.55 µM. Work on COc1cccc(C2C3=C(CC(C)(C)CC3=O)Nc3n[nH]c(C)c32)c1 (configuration not stated) yielded an AC50 of 1.16 µM. COc1ccccc1C1C2=C(CCCC2=O)Nc2n[nH]c(C)c21 (configuration not stated) gave an AC50 of 3.42 µM. With CC1(C)CC(=O)C2=C(C1)Nc1n[nH]c(C(F)(F)F)c1C2c1cc(F)ccc1OC(F)(F)F (configuration not stated) the AC50 was 0.403 µM. Cc1[nH]nc2c1C(c1ccccc1C#N)C1=C(CC(C)(C)CC1=O)N2 (configuration not stated) was tested, and the AC50 was 0.134 µM. In the case of COc1ccccc1C1C2=C(CC(C)(C)CC2=O)Nc2n[nH]c(C(C)(C)C)c21 (configuration not stated), the AC50 is reported as 0.834 µM. For Cc1[nH]nc2c1C(c1cccc(Cl)c1)C1=C(CC(C)(C)CC1=O)N2 (configuration not stated), the AC50 was 0.919 µM. O/N=C/c1cn(-c2ccccc2)nc1-c1ccc(Cl)cc1 gave an AC50 of 0.0452 µM. Cc1[nH]nc2c1C(c1cccs1)C1C(=O)CC(C)(C)CC1=N2 (configuration not stated) showed an AC50 of 0.627 µM. With CSc1ccccc1C1C2=C(CC(C)(C)CC2=O)Nc2n[nH]c(C)c21 (configuration not stated) the AC50 was 0.0324 µM. With Cc1[nH]nc2c1C(c1ccc(C(F)(F)F)cc1)C1=C(CC(C)(C)CC1=O)N2 (configuration not stated) the AC50 was 9.29 µM. Cc1cccc(C2C3=C(CC(C)(C)CC3=O)Nc3n[nH]c(C)c32)c1 (configuration not stated) was tested, and the AC50 was 0.614 µM. COc1ccccc1C1C2=C(CC(C)(C)CC2=O)Nc2[nH]ncc21 (configuration not stated) was tested, and the AC50 was 0.122 µM. Cc1[nH]nc2c1C(c1ccc3c(c1)OCO3)C1=C(CC(C)(C)CC1=O)N2 (configuration not stated) showed an AC50 of 4.61 µM. With Cc1[nH]nc2c1C(c1ccccn1)C1=C(CC(C)(C)CC1=O)N2 (configuration not stated) the AC50 was 1.02 µM. COc1cccc(-c2nn(-c3ccccc3)cc2/C=N/O)c1 showed an AC50 of 1.76 µM. Compound Cc1[nH]nc2c1C(C1CC1)C1=C(CC(C)(C)CC1=O)N2 (configuration not stated) has an AC50 of 3.05 µM. In the case of Cc1[nH]nc2c1C(c1ccc(C#N)cc1)C1=C(CC(C)(C)CC1=O)N2 (configuration not stated), the AC50 is reported as 10.4 µM. Work on CC1(C)CC(=O)C2=C(C1)Nc1n[nH]c(C(F)(F)F)c1C2c1ccc(F)cc1C(F)(F)F (configuration not stated) yielded an AC50 of 0.173 µM. For COc1ccc(C2C3=C(CC(C)(C)CC3=O)Nc3n[nH]c(C)c32)cc1 (configuration not stated), the AC50 was 14.7 µM. Compound O/N=C/c1cn(-c2ccccc2)nc1-c1ccc(F)cc1 has an AC50 of 0.44 µM. Cc1[nH]nc2c1C(c1cccc(F)c1)C1=C(CC(C)(C)CC1=O)N2 (configuration not stated) gave an AC50 of 0.54 µM. Compound Cc1[nH]nc2c1C(c1cccc(C(F)(F)F)c1)C1=C(CC(C)(C)CC1=O)N2 (configuration not stated) has an AC50 of 0.199 µM. Cc1[nH]nc2c1C(c1ccn[nH]1)C1=C(CC(C)(C)CC1=O)N2 (configuration not stated) showed an AC50 of 1.88 µM. In the case of Cc1[nH]nc2c1C(C)C1=C(CC(C)(C)CC1=O)N2 (configuration not stated), the AC50 is reported as 0.534 µM. Cc1[nH]nc2c1C(c1ccc(Br)cn1)C1=C(CC(C)(C)CC1=O)N2 (configuration not stated) showed an AC50 of 4.99 µM. Cc1[nH]nc2c1C(c1ccc(F)cc1)C1=C(CC(C)(C)CC1=O)N2 (configuration not stated) was tested, and the AC50 was 2.96 µM. Work on O=S(=O)(Nc1ccccn1)c1ccc(N=Cc2c(O)[nH]c3ccc4ncsc4c23)cc1 yielded an AC50 of 0.807 µM. Compound COc1ccccc1C1C2=C(CCC(C)(C)C2=O)Nc2n[nH]c(C)c21 (configuration not stated) has an AC50 of 0.515 µM. Cc1[nH]nc2c1C(c1ccccc1Cl)C1=C(CC(C)(C)CC1=O)N2 (configuration not stated) was tested, and the AC50 was 0.3 µM. With CC1(C)CC(=O)C2=C(C1)Nc1n[nH]c(C(F)(F)F)c1C2c1c(F)cccc1F (configuration not stated) the AC50 was 0.0875 µM. With Cc1[nH]nc2c1C(c1cccc(C#N)c1)C1=C(CC(C)(C)CC1=O)N2 (configuration not stated) the AC50 was 0.0523 µM. Cc1[nH]nc2c1C(c1ccc(Cl)s1)C1=C(CC(C)(C)CC1=O)N2 (configuration not stated) gave an AC50 of 1.14 µM. Cc1[nH]nc2c1C(c1ccccc1Br)C1=C(CC(C)(C)CC1=O)N2 (configuration not stated) gave an AC50 of 0.18 µM. CCc1[nH]nc2c1C(c1ccccc1OC)C1=C(CC(C)(C)CC1=O)N2 (configuration not stated) was tested, and the AC50 was 0.0833 µM. In the case of Cc1[nH]nc2c1C(c1ccc(F)cc1Cl)C1=C(CC(C)(C)CC1=O)N2 (configuration not stated), the AC50 is reported as 2.29 µM. For Cc1[nH]nc2c1[C@@H](c1ccccc1C(F)(F)F)C1=C(CC(C)(C)CC1=O)N2, the AC50 was 0.037 µM. CC1(C)CC(=O)C2=C(C1)Nc1n[nH]c(C(F)(F)F)c1C2c1ccccc1 (configuration not stated) showed an AC50 of 0.0357 µM. COc1ccccc1/C=C1\C(=O)CC(C)(C)CC1=Nc1cc(C(F)(F)F)[nH]n1 was tested, and the AC50 was 7.5 µM. Work on COc1ccccc1[C@@H]1C2=C(CC(C)(C)CC2=O)Nc2n[nH]c(C(F)(F)F)c21 yielded an AC50 of 0.0238 µM. Cc1[nH]nc2nc3c(c(-c4cccs4)c12)C(=O)CC(C)(C)C3 gave an AC50 of 28.1 µM. COc1ccccc1C1C(C(C)=O)=C(C)Nc2n[nH]c(C)c21 (configuration not stated) showed an AC50 of 3 µM. O/N=C/c1cn(-c2ccccc2)nc1-c1ccc2c(c1)OCCO2 was tested, and the AC50 was 0.577 µM. Work on CC(C)COc1ccc(-c2nn(-c3ccccc3)cc2/C=N/O)cc1 yielded an AC50 of 3.08 µM. Compound CC1(C)CC(=O)/C(=C\c2cccc(F)c2C(F)(F)F)C(=Nc2cc(C(F)(F)F)[nH]n2)C1 has an AC50 of 2.63 µM. For CC(C)c1ccc(-c2nn(-c3ccccc3)cc2/C=N/O)cc1, the AC50 was 0.737 µM. Compound Cc1ccc(C2C3=C(CC(C)(C)CC3=O)Nc3n[nH]c(C)c32)cc1 (configuration not stated) has an AC50 of 2.16 µM. With Cc1[nH]nc2c1C(c1ccc(Cl)cc1)C1=C(CC(C)(C)CC1=O)N2 (configuration not stated) the AC50 was 4.44 µM. COc1ccccc1C1C2=C(CC3(CCCCC3)CC2=O)Nc2n[nH]c(C)c21 (configuration not stated) gave an AC50 of 0.278 µM. For Cc1[nH]nc2c1C(c1cccc3nonc13)C1=C(CC(C)(C)CC1=O)N2 (configuration not stated), the AC50 was 0.05 µM. For CC1(C)CC(=O)C2=C(C1)Nc1n[nH]c(C(F)(F)F)c1C2c1cc(F)ccc1C(F)(F)F (configuration not stated), the AC50 was 0.0513 µM. With Cc1[nH]nc2c1[C@H](c1cccs1)C1=C(CC(C)(C)CC1=O)N2 the AC50 was 11.6 µM. Cc1ccccc1C1C2=C(CC(C)(C)CC2=O)Nc2n[nH]c(C)c21 (configuration not stated) showed an AC50 of 0.455 µM. Compound Cc1[nH]nc2c1[C@H](c1ccccc1C(F)(F)F)C1=C(CC(C)(C)CC1=O)N2 has an AC50 of 5.57 µM. In the case of COc1ccc(-c2nn(-c3ccccc3)cc2/C=N/O)cc1OC, the AC50 is reported as 0.617 µM.

Same assay, conditions: GSK3beta ADP-Glo luminescence kinase assay, 60 min; at 46 µM (top of the series)
In the case of COc1ccc(-c2nn(-c3ccccc3)cc2C(=O)O)cc1, the “activity, negative = inhibition” value is reported as “inactive”. For CN(C)Cc1cn(-c2ccccc2)nc1-c1ccccc1, the “activity, negative = inhibition” value was “inactive”. COc1ccccc1C1C2=C(CC(C)(C)CC2=O)Nc2ccccc21 (configuration not stated) was tested, and the “activity, negative = inhibition” value was “inactive”.
